Results from US20250368633A1, “AZEPINE FUSED RING COMPOUND AS RIPK1 INHIBITOR AND USE THEREOF” (ARTIVILA BIOPHARMA, priority 2022, published 2025).

Columns and labels:
[1] = test system: U937 cells; assay: Inhibition rate of compound (1 μM) on necroptosis of U937 cells (TSZ-induced, CellTiter-Glo); format: cell-based; conditions: TSZ (hTNF-α, SM-164, Z-VAD-FMK) 20 hours
Summary of the method: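 U937 cells were pretreated 15 min with compound, then necroptosis was triggered with TSZ (Z-VAD-FMK, hTNF-α, SM-164) for 20 h at 37° C. Viability was read as ATP by CellTiter-Glo luminescence, and inhibition (%) was taken relative to no-TSZ and TSZ-only wells.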

[2] = biological target: T1, RIPK1 kinase (Homo sapiens, UniProt Q13546); assay: In vitro RIPK1 kinase activity assay (ADP-Glo), inhibition by compounds at 1 μM; format: biochemical; conditions: compound 1 μM; ATP 10 μM; MBP substrate 100 μg/mL; read-out: RIPK1 kinase activity inhibition rate range
T1 construct: purchased Promega VA7593
T1 sequence (Q13546 1-671): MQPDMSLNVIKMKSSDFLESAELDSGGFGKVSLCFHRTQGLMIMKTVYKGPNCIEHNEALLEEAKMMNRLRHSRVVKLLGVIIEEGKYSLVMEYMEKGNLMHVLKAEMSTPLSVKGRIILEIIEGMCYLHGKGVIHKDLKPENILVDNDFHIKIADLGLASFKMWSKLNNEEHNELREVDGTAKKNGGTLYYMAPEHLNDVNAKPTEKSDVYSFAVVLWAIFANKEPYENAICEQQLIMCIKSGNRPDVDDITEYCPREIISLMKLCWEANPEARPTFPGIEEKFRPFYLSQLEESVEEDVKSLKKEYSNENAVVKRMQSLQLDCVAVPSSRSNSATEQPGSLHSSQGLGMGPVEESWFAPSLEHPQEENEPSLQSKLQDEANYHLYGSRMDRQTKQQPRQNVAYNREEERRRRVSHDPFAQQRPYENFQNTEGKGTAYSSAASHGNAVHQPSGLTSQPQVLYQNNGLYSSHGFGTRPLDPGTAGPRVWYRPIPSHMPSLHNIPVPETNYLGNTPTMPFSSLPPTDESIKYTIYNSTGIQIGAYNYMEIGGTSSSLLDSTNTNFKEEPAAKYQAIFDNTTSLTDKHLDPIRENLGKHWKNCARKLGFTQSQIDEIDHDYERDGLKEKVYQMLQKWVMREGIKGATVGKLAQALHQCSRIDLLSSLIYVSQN
Summary of the method: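 Compound and RIPK1 were preincubated 15 min at room temperature, then reacted 1 h with 10 μM ATP and 100 μg/mL MBP substrate in kinase buffer D. ADP formed was measured by ADP-Glo luminescence and converted to percent inhibition of kinase activity.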

[3] = biological target: T1, RIPK1 kinase; assay: In vitro RIPK1 kinase activity IC50 assay (ADP-Glo); format: biochemical; conditions: ATP 10 μM; MBP substrate 100 μg/mL; 8 concentration points; read-out: IC50 range of compounds for RIPK1 kinase activity
Summary of the method: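 Human RIPK1 preincubated 15 min at room temperature with compound (8-point 1:5 dilution series, 1% DMSO in kinase buffer D). Reaction then ran 1 h with 10 μM ATP and 100 μg/mL MBP substrate; ADP measured by ADP-Glo luminescence, IC50 from four-parameter nonlinear fit.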

SMILES	Inhibition rate range of compounds (1 μM) on U937 cell necroptosis [1]	inhibition at 1 µM [2] [%]	IC50 [3] [µM]
COC(=O)C1(C#Cc2ccc3c(c2)N(C)C(=O)[C@@H](NC(=O)C(=O)NCCc2ccccc2)CO3)CC1 [Example 96, methyl (S)-1-((5-methyl-4-oxo-3-(2-oxo-2-(phenethylamino)acetamido)-2,3,4,5-tetrahydrobenzo[b][1,4]oxazepin-7-yl)ethynyl)cyclopropane-1-carboxylate]	B (B: 50-89%)	≥ 75	< 0.1
CN1C(=O)[C@@H](NC(=O)C(=O)NCCc2cccs2)COc2ccccc21 [Example 97, (S)—N^1-(5-methyl-4-oxo-2,3,4,5-tetrahydrobenzo[b][1,4]oxazepin-3-yl)-N^2-(2-(thiophen-2-yl)ethyl)oxalamide]	A (A: ≥90%)	≥ 75	< 0.1
CN1C(=O)[C@@H](NC(=O)C(=O)NCCc2ccsc2)COc2ccccc21 [Example 98, (S)—N-(5-methyl-4-oxo-2,3,4,5-tetrahydrobenzo[b][1,4]oxazepin-3-yl)-N^2-(2-(thiophen-3-yl)ethyl)oxalamide]	A (A: ≥90%)	≥ 75	< 0.1
